According to article PMC7615501 (Journal of immunology (Baltimore, Md. : 1950), 2021):

What was measured:
CD8+ T cell clone 6C5 [1] = experiment: Activation of clone 6C5 by peptide-pulsed T2 cells, MIP-1β ELISA; assay type: cell-based, human; conditions: high purity (>95%) peptide preparations
CD8+ T cell clone 6C5 [2] = conditions: earlier work; cited from earlier work
HLA-A*0201 = HLA-A*0201 (Homo sapiens, UniProt P04439, D140Y/D185E/D98H/E176V/E277Q/G131W/G231S/I119V/I121R/I166T/I218V/L300P/L318F/N151K/N90K/P208A/P217A/Q86G/Q94H/R138H/R169H/T345S); conditions: earlier work; cited from earlier work

Substance | Functional response of clone 6C5, retest with high purity preparations (CD8+ T cell clone 6C5 [1]) | Recognition by CD8+ T cell clone 6C5 (CD8+ T cell clone 6C5 [2]) | Binding to HLA-A*0201 (HLA-A*0201)
FMAYFGVSA | inert |  | 
LLSY(3-tBu)FGTPT |  | recognize | bound poorly to HLA-A*0201
LTAYMLLAI | inert |  | 
